Measured values from patent publication US12655150B2 (Cedilla Therapeutics, Inc., priority 2021, dated 2026).

Assays:
[1] = system: EGFR-mutant NSCLC PC-9 cells; assay: Apoptosis (caspase 3/7, IncuCyte) in combination with EGFR inhibitor; format: cell-based; conditions: apoptotic index
Procedure: Apoptosis was detected by CellEvent Caspase 3/7 Green ReadyProbes Reagent (ThermoFisher), a fluorogenic indicator of activated caspase-3/7. Cell death (apoptsis) and cell growth (phase confluence) over time were captured by IncuCyte live cell imaging system (Essen Bioscience) and quantified by IncuCyte S3 software (Essen Bioscience). Apoptotic Index was calculated by dividing apoptosis signal with phase confluence.

NCI-H226 = assay: 72H TEAD Proliferation Assay (Cell Titer Glo 2.0); format: cell-based; conditions: Homo sapiens, NCI-H226, 72 h, CTG 2.0, cell line not given (NCI-H226 responsive, NCI-H28 non-responsive)
In short: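 NF2-deficient NCI-H226 mesothelioma cells, TEAD-dependent, treated 72 h; NF2-wild-type NCI-H28 serves as the TEAD-independent counter-screen for off-target cytotoxicity. Viable cells quantified by CellTiter-Glo 2.0 luminescence; background and time-zero signal subtracted, GI50 from nonlinear dose-response fit.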

CC(C)(C)c1ccc(-c2nc3cc(C(=O)O)ccc3n3cccc23)cc1 [I-41, 4-(4-(tert-butyl)phenyl)pyrrolo[1,2-a]quinoxaline-7-carboxylic acid]
Fold Change over DMSO at 48 hrs ([1]; I-41 (10 μM) alone): 1.1
Fold Change over DMSO at 48 hrs ([1]; Osimertinib (100 nM) + I-41 (0.37 μM)): 4.3
Fold Change over DMSO at 48 hrs ([1]; Osimertinib (100 nM) + I-41 (1.1 μM)): 4.9
Fold Change over DMSO at 48 hrs ([1]; Osimertinib (100 nM) + I-41 (10 μM)): 5.5
GI50 (NCI-H226): ≤ 1 µM

C=CC(=O)NCc1cn2ccnc2c(Nc2cccc(OC(F)(F)F)c2)n1 [I-442, N-((8-((3-(trifluoromethoxy)phenyl)amino)imidazo[1,2-a]pyrazin-6-yl)methyl)acrylamide]
GI50 (NCI-H226): 1 to 5 µM

C=CC(=O)NCc1nc(-c2ccc(C(F)(F)F)cc2)c2ccc(F)cc2n1 [I-445, N-((7-fluoro-4-(4-(trifluoromethyl)phenyl)quinazolin-2-yl)methyl)acrylamide]
GI50 (NCI-H226): ≤ 1 µM

C=CC(=O)NCc1nc(-c2ccc(C(C)(C)C)cc2)c2ccc(F)cc2n1 [I-446, N-((4-(4-(tert-butyl)phenyl)-7-fluoroquinazolin-2-yl)methyl)acrylamide]
GI50 (NCI-H226): ≤ 1 µM

C=CC(=O)NCc1nc(-c2ccc(OC(F)(F)F)cc2)c2ccc(F)cc2n1 [I-447, N-((7-fluoro-4-(4-(trifluoromethoxy)phenyl)quinazolin-2-yl)methyl)acrylamide]
GI50 (NCI-H226): ≤ 1 µM

C=CC(=O)NCc1cn2ccnc2c(-c2ccc(SC(F)(F)F)cc2)n1 [I-448, N-((8-(4-((trifluoromethyl)thio)phenyl)imidazo[1,2-a]pyrazin-6-yl)methyl)acrylamide]
GI50 (NCI-H226): ≤ 1 µM

C=CC(=O)NCc1nc(-c2ccc(C(F)(F)F)cc2)c2[nH]ccc2n1 [I-450, N-((4-(4-(trifluoromethyl)phenyl)-5H-pyrrolo[3,2-d]pyrimidin-2-yl)methyl)acrylamide]
GI50 (NCI-H226): 5 to 10 µM

C=CC(=O)NCc1nc(-c2ccc(C(F)(F)F)cc2)c2c(ccn2C)n1 [I-451, N-((5-methyl-4-(4-(trifluoromethyl)phenyl)-5H-pyrrolo[3,2-d]pyrimidin-2-yl)methyl)acrylamide]
GI50 (NCI-H226): ≤ 1 µM

C=CC(=O)Nc1cc(Nc2nccc(-c3cn(C)c4ccccc34)n2)c(OC)cc1N(C)CCN(C)C [Osimertinib, reference compound]
Fold Change over DMSO at 48 hrs ([1]; Osimertinib (100 nM) alone): 2.6
